Values quoted from earlier work as cited in US20030087843A1, “O-pyrazole glucoside SGLT2 inhibitors and method of use” (priority 2001, published 2003).

Assays:
human SGLT1 = biological target: T1, human SGLT1 (Homo sapiens, UniProt P13866); details: read-out: Km for uptake of AMG
T1 sequence (P13866 1-664): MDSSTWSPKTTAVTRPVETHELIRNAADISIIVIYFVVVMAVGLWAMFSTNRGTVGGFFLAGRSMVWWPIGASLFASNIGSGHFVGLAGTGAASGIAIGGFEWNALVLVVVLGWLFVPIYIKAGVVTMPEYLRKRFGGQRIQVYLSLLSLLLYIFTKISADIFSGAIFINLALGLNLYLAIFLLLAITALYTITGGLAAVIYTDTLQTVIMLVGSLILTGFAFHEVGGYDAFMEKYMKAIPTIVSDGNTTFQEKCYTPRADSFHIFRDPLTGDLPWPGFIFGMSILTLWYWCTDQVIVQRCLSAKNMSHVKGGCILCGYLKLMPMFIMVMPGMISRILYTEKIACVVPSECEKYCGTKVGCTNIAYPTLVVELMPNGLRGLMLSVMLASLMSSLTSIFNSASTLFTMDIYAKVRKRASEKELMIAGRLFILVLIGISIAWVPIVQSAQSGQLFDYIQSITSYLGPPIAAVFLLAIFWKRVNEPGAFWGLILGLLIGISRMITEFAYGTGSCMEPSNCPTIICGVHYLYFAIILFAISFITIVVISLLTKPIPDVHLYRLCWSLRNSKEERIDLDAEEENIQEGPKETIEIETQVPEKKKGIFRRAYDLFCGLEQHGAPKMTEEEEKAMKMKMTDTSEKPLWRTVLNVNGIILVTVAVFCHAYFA

human SGLT2 = biological target: T2, human SGLT2 (Homo sapiens, UniProt P31639); details: read-out: Km for uptake of AMG
T2 sequence (P31639 1-672): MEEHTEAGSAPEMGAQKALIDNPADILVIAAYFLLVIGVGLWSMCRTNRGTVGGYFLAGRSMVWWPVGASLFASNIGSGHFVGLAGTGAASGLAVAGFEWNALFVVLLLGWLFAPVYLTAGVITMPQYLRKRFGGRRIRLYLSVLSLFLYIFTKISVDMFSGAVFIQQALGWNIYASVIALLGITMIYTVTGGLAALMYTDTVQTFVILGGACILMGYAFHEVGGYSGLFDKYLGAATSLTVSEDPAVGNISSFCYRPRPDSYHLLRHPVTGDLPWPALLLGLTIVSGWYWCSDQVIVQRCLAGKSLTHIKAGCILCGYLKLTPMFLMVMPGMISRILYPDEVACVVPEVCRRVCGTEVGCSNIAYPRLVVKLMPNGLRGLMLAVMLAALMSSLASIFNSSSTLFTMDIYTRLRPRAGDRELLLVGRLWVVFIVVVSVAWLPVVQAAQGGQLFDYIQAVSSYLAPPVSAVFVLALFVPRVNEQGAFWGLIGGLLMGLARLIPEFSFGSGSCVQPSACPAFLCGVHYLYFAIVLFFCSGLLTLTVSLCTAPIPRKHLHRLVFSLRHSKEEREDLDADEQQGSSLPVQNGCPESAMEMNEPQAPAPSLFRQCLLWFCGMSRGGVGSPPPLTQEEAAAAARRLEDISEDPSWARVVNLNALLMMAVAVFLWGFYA

[1] = tested on: facilitative glucose transporters (GLUTs)
[2] = normal animals, despite the presence of glycosuria
[3] = oral
[4] = diabetic rodent models and one canine diabetes model

CO[C@H]1O[C@H](CO)[C@@H](O)[C@H](O)[C@H]1O [AMG, α-methyl-D-glucopyranoside]
Km (human SGLT1): 400 µM | Km (human SGLT2): 1600 µM

O=C(CCc1ccc(O)cc1)c1c(O)cc(O)cc1O [phloretin]
inhibition of facilitated glucose transport [1]: potent inhibitor

O=C(CCc1ccc(O)cc1)c1c(O)cc(O)cc1O[C@@H]1O[C@H](CO)[C@@H](O)[C@H](O)[C@H]1O [phlorizin]
hypoglycemic or other adverse effects [2]: no hypoglycemic or other adverse effects | fasting and fed plasma glucose (SGLT2 activity; [4]): lowering fasting and fed plasma glucose | glucose excretion (SGLT2 activity; [4]): promoting glucose excretion | hypoglycemic side effects (SGLT2 activity; [4]): without hypoglycemic side effects | adverse effects on plasma ion balance, renal function or renal morphology (SGLT2 activity; treatment for as long as two weeks): No adverse effects | hydrolysis in the gut [3]: hydrolyzed in the gut to its aglycone phloretin
